Measurements published in patent US20050101595A1, “N-containing cycloalkyl-substituted amino-thiazole derivatives and pharmaceutical compositions for inhibiting cell proliferation and methods for their use” (PFIZER INC., priority 2003, published 2005).

Experiments:
[1] = molecular target: CDK2/Cyclin A (Homo sapiens, UniProt P24941); assay: Inhibition of CDK2/Cyclin A Retinoblastoma Kinase Activity; type: biochemical; conditions: 0.03 μM compound, Table 2
In short: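 Radiometric filter-binding readout of phosphate transfer to an Rb substrate fragment by purified CDK2/truncated cyclin A at 10 or 19 nM. Run at pH 7.4 with 25 μM ATP, 30 °C, 60–75 min, linear rates; background without enzyme subtracted, Ki from competitive-inhibition models.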

[2] = molecular target: human CDK4 and genetically truncated (1-264) cyclin D3 (Homo sapiens, UniProt P11802); assay: Inhibition of CDK4/Cyclin D Retinoblastoma Kinase Activity; type: biochemical; conditions: 0.03 μM compound, Table 2
In short: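 Apparent Ki values come from competitive or competitive tight-binding inhibition fits of background-corrected 32P/33P incorporation into His-tagged Rb fragment (386-928), captured on nitrocellulose. Reaction: 5 nM insect-cell-expressed human CDK4 with cyclin D3 (1-264), 25 μM ATP, pH 7.4 HEPES, 2% DMSO, 30° C., 20 min, extended to 60 min for tight-binding inhibitors.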

[3] = test system: HCT-116 cell line; assay: Inhibition of cell growth, tetrazolium salt (MTT) assay; type: cell-based; conditions: HCT-116, Table 2; for HCT-116 % Inhibition at 0.25 μM: 0.25 μM compound
In short: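 HCT-116 cells in McCoy's 5A medium received compound 4 h after plating (0.5% v/v DMSO) and were incubated three to five days at 37° C, 5% CO2. MTT (0.2 mg/mL final) then added for 4 h; DMSO-solubilized formazan read at 540 nm against 0.5% DMSO-treated controls.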

Sequence of human CDK4 and genetically truncated (1-264) cyclin D3 (P11802 whole entry, the tested form may be a part): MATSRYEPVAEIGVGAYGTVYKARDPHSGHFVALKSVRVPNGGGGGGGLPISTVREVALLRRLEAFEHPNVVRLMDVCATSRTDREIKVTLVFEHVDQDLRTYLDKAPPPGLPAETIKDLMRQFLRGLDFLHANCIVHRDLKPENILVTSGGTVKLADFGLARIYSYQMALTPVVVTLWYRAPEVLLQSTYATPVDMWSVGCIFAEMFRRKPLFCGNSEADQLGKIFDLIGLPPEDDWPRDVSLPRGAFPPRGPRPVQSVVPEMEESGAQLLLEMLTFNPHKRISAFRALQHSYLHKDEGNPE
Sequence of human CDK4 and genetically truncated (1-264) cyclin D3 (P30281 1-264 partner): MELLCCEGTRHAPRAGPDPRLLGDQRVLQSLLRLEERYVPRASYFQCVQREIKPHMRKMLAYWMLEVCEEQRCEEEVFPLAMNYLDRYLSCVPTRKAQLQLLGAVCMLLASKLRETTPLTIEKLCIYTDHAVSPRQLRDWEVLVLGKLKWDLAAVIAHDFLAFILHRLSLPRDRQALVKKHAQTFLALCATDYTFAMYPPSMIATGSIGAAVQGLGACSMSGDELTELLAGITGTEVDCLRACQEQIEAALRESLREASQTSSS

Compound | CDK2 % Inhibition At 0.03 μM [1] | CDK4 % Inhibition at 0.03 μM [2] | HCT-116 % Inhibition at 0.25 μM [3] | other results
Nc1nc(NC2CCN(C(=O)NC3C[C@H]3c3ccccc3)CC2)sc1C(=O)c1c(F)cccc1F (stereo partly drawn) [Example O1] |  |  |  | inhibition at 0.03 µM [1]: 30%; inhibition at 0.03 µM [2]: -4%; inhibition at 0.25 µM ([3]; Homo sapiens, HCT-116, 0.25 μM compound, read-out: HCT-116 % Inhibition at 0.25 μM): 0%
C[Si](C)(C)NC(=O)N1CCC(Nc2nc(N)c(C(=O)c3c(F)cccc3F)s2)CC1 [Example O2] | 34% | 6% | 0% | 
Nc1nc(NC2CCN(C(=O)Nc3ccccc3)CC2)sc1C(=O)c1c(F)cccc1F [Example O3] | 34% | 6% | 0% | 
Nc1nc(NC2CCN(C(=O)Nc3ccccc3Br)CC2)sc1C(=O)c1c(F)cccc1F [Example O4] | 27% | 10% | 4% | 
Nc1nc(NC2CCN(C(=O)Nc3ccccc3F)CC2)sc1C(=O)c1c(F)cccc1F [Example O5] | 35% | 3% | 31% | 
Nc1nc(NC2CCN(C(=O)Nc3ccccc3Cl)CC2)sc1C(=O)c1c(F)cccc1F [Example O6] | 36% | 10% | 12% | 
COc1ccccc1NC(=O)N1CCC(Nc2nc(N)c(C(=O)c3c(F)cccc3F)s2)CC1 [Example O7] | 40% | 10% | 43% | 
COc1ccc(NC(=O)N2CCC(Nc3nc(N)c(C(=O)c4c(F)cccc4F)s3)CC2)c(OC)c1 [Example O8] | 37% | 15% | 0% | 
COc1ccc(OC)c(NC(=O)N2CCC(Nc3nc(N)c(C(=O)c4c(F)cccc4F)s3)CC2)c1 [Example O9] | 35% | 2% | 13% | 
Nc1nc(NC2CCN(C(=O)Nc3ccccc3C(F)(F)F)CC2)sc1C(=O)c1c(F)cccc1F [Example O10] | 28% | 5% | 0% | 
Cc1ccccc1NC(=O)N1CCC(Nc2nc(N)c(C(=O)c3c(F)cccc3F)s2)CC1 [Example O11] | 35% | 6% | 0% | 
Nc1nc(NC2CCN(C(=O)Nc3cccc(Br)c3)CC2)sc1C(=O)c1c(F)cccc1F [Example O12] | 31% | 3% | 25% | 
Nc1nc(NC2CCN(C(=O)Nc3cccc(F)c3)CC2)sc1C(=O)c1c(F)cccc1F [Example O13] | 37% | 8% | 22% | 
Nc1nc(NC2CCN(C(=O)Nc3cccc(Cl)c3)CC2)sc1C(=O)c1c(F)cccc1F [Example O14] | 36% | 9% | 23% | 
COc1cccc(NC(=O)N2CCC(Nc3nc(N)c(C(=O)c4c(F)cccc4F)s3)CC2)c1 [Example O15] | 36% | 4% | 13% | 
Nc1nc(NC2CCN(C(=O)Nc3cccc(C(F)(F)F)c3)CC2)sc1C(=O)c1c(F)cccc1F [Example O16] | 34% | 5% | 6% | 
Cc1cccc(NC(=O)N2CCC(Nc3nc(N)c(C(=O)c4c(F)cccc4F)s3)CC2)c1 [Example O17] | 32% | 6% | 8% | 
Nc1nc(NC2CCN(C(=O)Nc3ccc(Br)cc3)CC2)sc1C(=O)c1c(F)cccc1F [Example O18] | 27% | 9% | 20% | 

Compound | CDK2 % Inhibition At 0.03 μM [1] | CDK4 % Inhibition at 0.03 μM [2] | HCT-116 % Inhibition at 0.25 μM [3] | other results
Nc1nc(NC2CCN(C(=O)Nc3ccc(F)cc3)CC2)sc1C(=O)c1c(F)cccc1F [Example O19] | 31% | 9% | 7% | 
Nc1nc(NC2CCN(C(=O)Nc3ccc(Cl)cc3)CC2)sc1C(=O)c1c(F)cccc1F [Example O20] | 26% | 7% | 15% | 
COc1ccc(NC(=O)N2CCC(Nc3nc(N)c(C(=O)c4c(F)cccc4F)s3)CC2)cc1 [Example O21] |  |  |  | CDK2 % Inhibition At 0.03 μM ([1]; 0.03 µM): 37%; CDK4 % Inhibition at 0.03 μM ([2]; 0.03 µM): 13%; HCT-116 % Inhibition at 0.25 μM ([3]; 0.25 µM): 21%
CCOC(=O)c1ccc(NC(=O)N2CCC(Nc3nc(N)c(C(=O)c4c(F)cccc4F)s3)CC2)cc1 [Example O22] | 34% | 13% | 25% | 
Nc1nc(NC2CCN(C(=O)Nc3ccc(C(F)(F)F)cc3)CC2)sc1C(=O)c1c(F)cccc1F [Example O23] | 36% | 10% | 24% | 
Cc1ccc(NC(=O)N2CCC(Nc3nc(N)c(C(=O)c4c(F)cccc4F)s3)CC2)cc1 [Example O24] | 34% | 21% | 6% | 
Cc1ccc(S(=O)(=O)NC(=O)N2CCC(Nc3nc(N)c(C(=O)c4c(F)cccc4F)s3)CC2)cc1 [Example O25] | 31% | 3% | 27% | 
Nc1nc(NC2CCN(C(=O)NC(=O)c3ccccc3)CC2)sc1C(=O)c1c(F)cccc1F [Example O26] | 33% | 10% | 12% | 
CC(C)(C)NC(=O)N1CCC(Nc2nc(N)c(C(=O)c3c(F)cccc3F)s2)CC1 [Example O27] | 38% | 9% | 24% | 
CC(NC(=O)N1CCC(Nc2nc(N)c(C(=O)c3c(F)cccc3F)s2)CC1)c1ccccc1 (stereo not drawn) [Example O28] |  |  |  | CDK2 % Inhibition At 0.03 μM ([1]; 0.03 µM): 27%; CDK4 % Inhibition at 0.03 μM ([2]; 0.03 µM): 12%; HCT-116 % Inhibition at 0.25 μM ([3]; 0.25 µM): 43%
CC(C)NC(=O)N1CCC(Nc2nc(N)c(C(=O)c3c(F)cccc3F)s2)CC1 [Example O29] | 30% | 10% | 33% | 
CCOC(=O)CNC(=O)N1CCC(Nc2nc(N)c(C(=O)c3c(F)cccc3F)s2)CC1 [Example O30] | 27% | 16% | 31% | 
CCNC(=O)N1CCC(Nc2nc(N)c(C(=O)c3c(F)cccc3F)s2)CC1 [Example O31] | 33% | 6% | 37% | 
Nc1nc(NC2CCN(C(=O)NCCCl)CC2)sc1C(=O)c1c(F)cccc1F [Example O32] | 30% | 12% | 99% | 
CCCNC(=O)N1CCC(Nc2nc(N)c(C(=O)c3c(F)cccc3F)s2)CC1 [Example O33] | 30% | −3% | 31% | 
Nc1nc(NC2CCN(C(=O)NC3CCCCC3)CC2)sc1C(=O)c1c(F)cccc1F [Example O34] | 30% | 6% | 22% | 
Nc1nc(NC2CCN(C(=O)Nc3cccc4ccccc34)CC2)sc1C(=O)c1c(F)cccc1F [Example O35] | 29% | 5% | 0% | 
